Holding throughout (format): in vivo
The subject of experiment [1] is velvetleaf (Abutilon theophrasti). In words: Test G Pre-Emergence Protocol. Conditions: Abutilon theophrasti, pre-emergence, 312 h, evaluated after 13 days; for pest or weed control at 15.625 g/ha: 15.625 g ai/ha; for pest or weed control at 15.625 g/ha / pest or weed control at 250 g/ha: read-out: Velvetleaf damage rating (100=total damage to plant; 0=no damage to plant); for pest or weed control at 62.5 g/ha: 62.5 g ai/ha, 100=total damage to plant, 0=no damage to plant, read-out: plant damage rating, Velvetleaf; for pest or weed control at 250 g/ha: 250 g ai/ha. The method in brief: (§1)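 Spraying took place one day after sowing, at 15.625, 62.5 or 250 g/ha, using an acetone/water (50:50) spray solution containing 0.5% Tween 20. Plants were kept under glasshouse conditions (24/16 °C, 14 h light, 65% humidity, watered twice daily), and injury was rated 0–100 at day 13.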

For experiment [2], the system named is barnyardgrass (Echinochloa crus-galli). Nature of the experiment: Test G Pre-Emergence Protocol. The following applies: Echinochloa crus-galli, pre-emergence, 312 h, evaluated after 13 days; for pest or weed control at 15.625 g/ha: 15.625 g ai/ha, read-out: Barnyard grass damage rating (100=total damage to plant; 0=no damage to plant); for pest or weed control at 62.5 g/ha: 62.5 g ai/ha, 100=total damage to plant, 0=no damage to plant, read-out: plant damage rating, Barnyardgrass; for pest or weed control at 250 g/ha: 250 g ai/ha, read-out: Barnyardgrass damage rating (100=total damage to plant; 0=no damage to plant). The procedure, abridged: as §1

Experiment [3] concerns redroot pigweed (Amaranthus retroflexus). In words: Test G Pre-Emergence Protocol. Conditions: Amaranthus retroflexus, pre-emergence, 312 h, evaluated after 13 days; for pest or weed control at 15.625 g/ha: 15.625 g ai/ha; for pest or weed control at 15.625 g/ha / pest or weed control at 250 g/ha: read-out: Pigweed, Redroot damage rating (100=total damage to plant; 0=no damage to plant); for pest or weed control at 62.5 g/ha: 62.5 g ai/ha, 100=total damage to plant, 0=no damage to plant, read-out: plant damage rating, Pigweed, Redroot; for pest or weed control at 250 g/ha: 250 g ai/ha. The procedure, abridged: as §1

For experiment [4], the system named is velvetleaf (Abutilon theophrasti). Nature of the experiment: Test A preemergence. The following applies: Abutilon theophrasti, pre-emergence, 240 h, 0 to 100 scale (0 no effect, 100 complete control), read-out: Plant response rating, Velvetleaf; for pest or weed control at 500 g/ha: 500 g ai/ha, preemergence; for pest or weed control at 125 g/ha: Preemergence, 125 g ai/ha. The method in brief: (§2)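 Ratings of 0 (no effect) to 100 (complete control) come from visual comparison with untreated controls roughly 10 d after treatment. Test chemicals, formulated in a non-phytotoxic solvent mixture with surfactant, were applied either as a preemergence directed soil spray on seeded soil or postemergence to one- to two-leaf plants 2 to 10 cm tall.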

Experiment [5] relates to morningglory (Ipomoea spp.). Nature of the experiment: Test A preemergence. Conditions: Ipomoea, pre-emergence, 240 h, 0 to 100 scale (0 no effect, 100 complete control), read-out: Plant response rating, Morningglory; for pest or weed control at 500 g/ha: 500 g ai/ha, preemergence; for pest or weed control at 125 g/ha: Preemergence, 125 g ai/ha. The procedure, abridged: as §2

In experiment [6] the test system is corn (Zea mays). In words: Test A preemergence. The following applies: Zea mays, pre-emergence, 240 h, 0 to 100 scale (0 no effect, 100 complete control); for Corn plant response rating (crop injury, 0 = no effect, 100 = complete kill) at 500 g/ha: 500 g ai/ha, preemergence; for Corn plant response rating (crop injury, 0 = no effect, 100 = complete kill) at 125 g/ha: Preemergence, 125 g ai/ha. The procedure, abridged:
as §2

Experiment [7] has as its system wheat (Triticum aestivum). Nature of the experiment: Test A preemergence. Conditions: Triticum aestivum, pre-emergence, 240 h, 0 to 100 scale (0 no effect, 100 complete control), read-out: Plant response rating, Wheat; for plant injury at 500 g/ha: 500 g ai/ha, preemergence; for plant injury at 125 g/ha: Preemergence, 125 g ai/ha. The procedure, abridged:
as §2

Experiment [8] has as its system crabgrass, large (Digitaria sanguinalis). In words: Test A preemergence. Conditions: Digitaria sanguinalis, pre-emergence, 240 h, 0 to 100 scale (0 no effect, 100 complete control), read-out: Plant response rating, Crabgrass, Large; for pest or weed control at 500 g/ha: 500 g ai/ha, preemergence; for pest or weed control at 125 g/ha: Preemergence, 125 g ai/ha. The method in brief:
as §2

The subject of experiment [9] is velvetleaf (Abutilon theophrasti). In words: Test A postemergence. Conditions: Abutilon theophrasti, post-emergence, 240 h, Postemergence; for pest or weed control at 125 g/ha: 125 g ai/ha, visual rating about 10 d after treatment, read-out: Velvetleaf plant response rating (0 to 100 scale); for pest or weed control at 500 g/ha: 500 g ai/ha, visual injury, 0 to 100 scale (0 no effect, 100 complete control), approx. 10 d, read-out: Plant response rating, Velvetleaf. The method in brief:
as §2

The subject of experiment [10] is morningglory (Ipomoea spp.). Nature of the experiment: Test A postemergence. The following applies: Ipomoea, post-emergence, 240 h, Postemergence; for pest or weed control at 125 g/ha: 125 g ai/ha, visual rating about 10 d after treatment, read-out: Morningglory plant response rating (0 to 100 scale); for pest or weed control at 500 g/ha: 500 g ai/ha, visual injury, 0 to 100 scale (0 no effect, 100 complete control), approx. 10 d, read-out: Plant response rating, Morningglory. The procedure, abridged:
as §2

The test system of experiment [11] is crabgrass, large (Digitaria sanguinalis). In words: Test A postemergence. Conditions: Digitaria sanguinalis, post-emergence, 240 h, Postemergence; for pest or weed control at 125 g/ha: 125 g ai/ha, visual rating about 10 d after treatment, read-out: Crabgrass, Large plant response rating (0 to 100 scale); for pest or weed control at 500 g/ha: 500 g ai/ha, visual injury, 0 to 100 scale (0 no effect, 100 complete control), approx. 10 d, read-out: Plant response rating, Crabgrass, Large. The method in brief: as §2

Each structure is given as a SMILES string.

As to `CN1C[C@@H](c2ccc(C(F)(F)F)cc2)[C@H](C(=O)Nc2cnccc2C(F)(F)F)C1=O` (racemic) [Compound 1401], the pest or weed control at 15.625 g/ha worked out at 0% in experiment [1], 20% in [2] and 0% in experiment [3]. Besides, the pest or weed control at 62.5 g/ha was determined as 30% in [1], 30% in experiment [2] and 40% in experiment [3]. For the same compound, the pest or weed control at 250 g/ha worked out at 70% in [1], 80% in experiment [2] and 90% in experiment [3].
In the case of `O=C1NCC(c2ccccc2)C1C(=O)Nc1ccc(C(F)(F)F)cc1` (stereo not shown) [Compound 1362], the pest or weed control at 500 g/ha in experiment [4], in [5], in experiment [8], in experiment [9], in experiment [10] and in [11] was 0% throughout. The pest or weed control at 125 g/ha in [4], in [5], in experiment [8], in experiment [9], in experiment [10] and in experiment [11] was 0% in each case. This compound registered a Corn plant response rating (crop injury, 0 = no effect, 100 = complete kill) at 500 g/ha in experiment [6] of 0%. Moreover, the Corn plant response rating (crop injury, 0 = no effect, 100 = complete kill) at 125 g/ha in experiment [6] turned out to be 0%. For the same compound, the plant injury at 500 g/ha in experiment [7] turned out to be 0%. Besides, the plant injury at 125 g/ha in experiment [7] came out at 0%.
`CN1C[C@H](c2cccc(C(C)(C)C#N)c2)[C@@H](C(=O)Nc2cccc(F)c2F)C1=O` (racemic) [Compound 1497]: in experiment [1], the pest or weed control at 15.625 g/ha was 0%, the pest or weed control at 62.5 g/ha came to 0% and the pest or weed control at 250 g/ha was 0%. Also, in [2], the pest or weed control at 15.625 g/ha was 0%, the pest or weed control at 62.5 g/ha was 30% and the pest or weed control at 250 g/ha stood at 80%. Also, in experiment [3], the pest or weed control at 15.625 g/ha turned out to be 0%, the pest or weed control at 62.5 g/ha is 0% and the pest or weed control at 250 g/ha was 0%.
`CN1C[C@@H](c2ccc(C(F)(F)F)cc2)[C@H](C(=O)Nc2ncc(C(F)(F)F)s2)C1=O` (racemic) [Compound 1504]: the pest or weed control at 15.625 g/ha in experiment [1], in [2] and in experiment [3] was 0% each time. Further, the pest or weed control at 62.5 g/ha in experiment [1], in [2] and in experiment [3] was 0% in each case. For the same compound, the pest or weed control at 250 g/ha in experiment [1], in experiment [2] and in [3] was 0% throughout.
For the compound `CN1C[C@@H](c2ccc(C(F)(F)F)cc2)[C@H](C(=O)Nc2ccnc(Cl)c2Cl)C1=O` (racemic) [Compound 1503], the pest or weed control at 15.625 g/ha in [1], in experiment [2] and in experiment [3] was 0% each time. The pest or weed control at 62.5 g/ha in experiment [1] and in experiment [2] was 0% in each case. Also, the pest or weed control at 250 g/ha in experiment [1] came to 0%; in experiment [2] it was 20%; in experiment [3] it was 0%.
For the compound `O=C1NCC(c2ccccc2)C1C(=O)Nc1cc(F)ccc1F` (stereo not shown) [Compound 1359], the pest or weed control at 500 g/ha was 0% in experiment [4]; 0% in experiment [5]; 20% in experiment [8]; 0% in experiment [9]; 0% in experiment [10]; 0% in experiment [11]. The pest or weed control at 125 g/ha in experiment [4], in experiment [5], in experiment [8], in experiment [9], in experiment [10] and in experiment [11] was 0% throughout. Moreover, in [6], the Corn plant response rating (crop injury, 0 = no effect, 100 = complete kill) at 500 g/ha came to 0%. In experiment [6], the Corn plant response rating (crop injury, 0 = no effect, 100 = complete kill) at 125 g/ha came to 0%. Also, the plant injury at 500 g/ha in [7] amounted to 0%. The plant injury at 125 g/ha in [7] amounted to 0%.

The values above are taken from patent US12077503B2, “Substituted cyclic amides and their use as herbicides” (FMC CORPORATION, priority 2015, dated 2024).
